Measurements as given in patent US7919496B2, “Heterocyclic derivatives for the treatment of diseases mediated by stearoyl-CoA desaturase enzymes” (Xenon Pharmaceuticals Inc., priority 2004, dated 2011).

SMILES	melting point
CCCCCNC(=O)c1cnc(N2CCN(C(=O)c3ccccc3C(F)(F)F)CC2)s1 [Example 7, 2-[4-(2-TRIFLUOROMETHYLBENZOYL)PIPERAZIN-1-YL]-THIAZOLE-5-CARBOXYLIC ACID PENTYLAMIDE]	92 to 94 °C
CCCCCNC(=O)c1cc(N2CCN(C(=O)c3ccccc3C(F)(F)F)CC2)nn1C(=O)OCc1ccccc1 [Example 6, 5-PENTYLCARBAMOYL-3-[4-(2-TRIFLUOROMETHYLBENZOYL)PIPERAZIN-1-YL]PYRAZOLE-1-CARBOXYLIC ACID BENZYL ESTER]	58 to 61 °C
